# Experimental data published in PubChem BioAssay AID743424 (The Scripps Research Institute Molecular Screening Center, 2014).
# The source made the active and inactive calls. How the calls were made is not given here.
# Target: Sphingosine 1-phosphate receptor 3 (Homo sapiens) (UniProt Q99500)
# Test: agonism at human S1PR3 – cell-based, fluorescence, dose response, counter-screen for S1PR3 antagonist project, late-stage follow-up (AID 743424)
# Settings: S1P3-expressing cells, agonist-mode fluorescence counterscreen
# Chain of Sphingosine 1-phosphate receptor 3 (Homo sapiens) (Q99500 whole entry, looked up): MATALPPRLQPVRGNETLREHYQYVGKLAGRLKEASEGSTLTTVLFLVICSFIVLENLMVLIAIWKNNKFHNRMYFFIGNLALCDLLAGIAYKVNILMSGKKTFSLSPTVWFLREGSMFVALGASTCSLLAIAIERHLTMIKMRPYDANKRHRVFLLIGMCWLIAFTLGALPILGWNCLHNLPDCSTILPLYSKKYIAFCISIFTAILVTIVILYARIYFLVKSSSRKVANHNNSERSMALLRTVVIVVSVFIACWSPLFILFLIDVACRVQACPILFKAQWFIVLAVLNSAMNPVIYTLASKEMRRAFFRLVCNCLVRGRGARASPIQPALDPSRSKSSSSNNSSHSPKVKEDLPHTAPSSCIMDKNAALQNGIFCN
row,Compound,EC50
1,N#Cc1ccc(C(=O)NC(c2ccc(Cl)c(Cl)c2)c2nc(-c3ccccc3)no2)cc1 (configuration not stated),> 50 µM (inactive)
2,O=C(c1cccc(Cl)c1)N(CCO)C(c1ccc(Cl)c(Cl)c1)c1nc(-c2ccccc2)no1 (configuration not stated),> 50 µM (inactive)
3,O=C(NC(c1ccccc1)c1nc(-c2ccccc2)no1)c1cccc(Cl)n1 (configuration not stated),inactive
4,O=C(NC(c1ccc(Cl)c(Cl)c1)c1nc(-c2ccccc2)no1)c1ccc(Cl)cc1 (configuration not stated),> 50 µM (inactive)
5,O=C(NC(c1ccc(Cl)cc1)c1nc(-c2ccccc2)no1)c1ccc(Cl)c(Cl)c1 (configuration not stated),> 50 µM (inactive)
6,O=C(NC(Cc1ccccc1)c1nc(-c2ccccc2)no1)c1cccc(Cl)c1 (configuration not stated),> 50 µM (inactive)
7,O=C(NC(c1ccc(Br)cc1)c1nc(-c2ccccc2)no1)c1ccc(Cl)c(Cl)c1 (configuration not stated),> 50 µM (inactive)
8,O=C(NC(c1cccc(Cl)c1)c1nc(-c2ccccc2)no1)c1cc(Cl)cc(Cl)c1 (configuration not stated),> 50 µM (inactive)
9,O=C(NC(c1cccc(Cl)c1)c1nc(-c2ccccc2)no1)c1ccc(Cl)c(Cl)c1 (configuration not stated),> 50 µM (inactive)
10,O=C(NC(c1ccccc1)c1nc(-c2ccccc2)no1)c1ccc(Cl)cc1 (configuration not stated),> 50 µM (inactive)
11,O=C(NC(c1ccc(Cl)c(Cl)c1)c1nc(-c2ccccc2)no1)c1ccc(Cl)c(Cl)c1 (configuration not stated),> 50 µM (inactive)
12,O=C(NC(c1ccc(Cl)c(Cl)c1)c1nc(-c2ccccc2)no1)c1ccccc1 (configuration not stated),> 50 µM (inactive)
13,O=C(NC(c1ccccc1)c1nc(-c2ccccc2)no1)c1cccc(Cl)c1 (configuration not stated),> 50 µM (inactive)
14,Cc1ccc(C(=O)NC(c2ccccc2)c2nc(-c3ccccc3)no2)cc1 (configuration not stated),> 50 µM (inactive)
15,COc1ccc(C(=O)NC(c2ccccc2)c2nc(-c3ccccc3)no2)cc1 (configuration not stated),> 50 µM (inactive)
16,O=C(NC(c1nc(-c2ccccc2)no1)C1CCOCC1)c1ccc(Cl)c(Cl)c1 (configuration not stated),> 50 µM (inactive)
17,O=C(NC(c1ccccc1)c1nc(-c2ccccc2)no1)c1cccc(Br)c1 (configuration not stated),> 50 µM (inactive)
18,O=C(NC(c1ccc(Cl)cc1)c1nc(-c2ccccn2)no1)c1cccc(Cl)c1 (configuration not stated),> 50 µM (inactive)
19,O=C(NC(c1nc(-c2ccccc2)no1)C1CCCCC1)c1ccc(Cl)c(Cl)c1 (configuration not stated),> 50 µM (inactive)

# Further lines, results first:
row,EC50,Compound
1,> 50 µM (inactive),CCc1ccc(C(NC(=O)c2cccc(Cl)c2)c2nc(-c3ccccc3)no2)cc1 (configuration not stated)
2,> 50 µM (inactive),O=C(NC(c1ccc(Cl)c(Cl)c1)c1nc(-c2ccccc2)no1)c1cccc(Cl)c1 (configuration not stated)
3,> 50 µM (inactive),O=C(NC(c1ccc(Cl)cc1)c1nc(-c2ccccc2)no1)c1cccc(Br)c1 (configuration not stated)
4,> 50 µM (inactive),O=C(NC(c1ccc(Cl)cc1)c1nc(-c2ccccc2)no1)c1cccc(Cl)c1 (configuration not stated)
5,> 50 µM (inactive),O=C(NC(c1cccc(Cl)c1)c1nc(-c2ccccc2)no1)c1cccc(Cl)c1 (configuration not stated)
6,> 50 µM (inactive),O=C(NC(c1ccc(Cl)cc1)c1nc(-c2cccc(Cl)c2)no1)c1cccc(Cl)c1 (configuration not stated)
7,> 50 µM (inactive),Cc1ccc(C(NC(=O)c2cccc(Cl)c2)c2nc(-c3ccccc3)no2)cc1 (configuration not stated)
8,> 50 µM (inactive),O=C(NC(c1ccc(Cl)cc1)c1nc(-c2ccccc2)no1)c1ccc(Cl)c(Br)c1 (configuration not stated)
